For this experiment, the target named is T1, GLP-1 receptor (Homo sapiens, UniProt P43220).
T1 construct: expressed in transfected cells; host or cells: HEK293
Put plainly: cAMP induction, firefly luciferase reporter assay in HEK293 cells co-transfected with GLP-1 receptor. It counts as cell-based. The settings on record: EC50 (nM) at GLP-1 Receptor. The source says:
This example describes an exemplary method of testing the biological activity of the peptides of the present disclosures, which method involves assaying cAMP synthesis.
On the technique in general: Reporter assays use an easily measured gene product as a stand-in for the process of interest.

Each structure is given as a SMILES string. *1 amine or outer side, *2 acyl side, *3 side chain or, on linkers, in order; H or OH if unused. Where a SMILES comes first, the peptide text is derived from it. Side-chain parts run from the residue outwards. [ ]: non-standard residue; d: D form. The star is where a group is joined. γGlu = O=C(O)[C@H](CCC(=O)[*:2])N[*:1]; Palmitoyl = CCCCCCCCCCCCCCCC(=O)*; Aib = CC(C)(N)C(=O)O

T1 sequence (P43220 24-463): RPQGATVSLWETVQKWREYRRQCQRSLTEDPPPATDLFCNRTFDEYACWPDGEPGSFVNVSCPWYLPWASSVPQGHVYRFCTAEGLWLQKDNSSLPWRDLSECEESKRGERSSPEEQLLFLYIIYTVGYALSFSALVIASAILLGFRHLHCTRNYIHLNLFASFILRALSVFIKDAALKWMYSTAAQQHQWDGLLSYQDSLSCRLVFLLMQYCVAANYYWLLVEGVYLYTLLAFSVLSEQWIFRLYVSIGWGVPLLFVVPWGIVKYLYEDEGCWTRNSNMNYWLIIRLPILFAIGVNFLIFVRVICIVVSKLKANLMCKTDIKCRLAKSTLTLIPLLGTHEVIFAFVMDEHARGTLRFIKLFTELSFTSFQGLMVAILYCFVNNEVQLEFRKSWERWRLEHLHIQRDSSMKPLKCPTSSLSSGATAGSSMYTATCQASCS

For orientation: EC50 means the concentration needed to bring the measured effect to its halfway point. Lower therefore signals an effect from little substance. For the setting “Table 6, Example 12”, `CC[C@H](C)[C@H](NC(=O)[C@H](CO)NC(=O)[C@H](Cc1ccc(O)cc1)NC(=O)[C@H](CC(=O)O)NC(=O)[C@H](CO)NC(=O)[C@@H](NC(=O)[C@H](Cc1ccccc1)NC(=O)[C@@H](NC(=O)CNC(=O)[C@H](CCC(N)=O)NC(=O)[C@@H](CO)NC(=O)[C@@H](N)Cc1ccc(O)cc1)[C@@H](C)O)[C@@H](C)O)C(=O)N[C@@H](Cc1ccc(O)cc1)C(=O)N[C@@H](CC(C)C)C(=O)N[C@@H](CC(=O)O)C(=O)N[C@@H](CCCCN)C(=O)N[C@@H](CCC(N)=O)C(=O)N[C@@H](C)C(=O)N[C@@H](C)C(=O)NC(C)(C)C(=O)N[C@@H](CCC(=O)O)C(=O)N[C@@H](Cc1ccccc1)C(=O)N[C@H](C(=O)N[C@@H](CC(N)=O)C(=O)N[C@@H](Cc1c[nH]c2ccccc12)C(=O)N[C@@H](CC(C)C)C(=O)N[C@@H](CC(C)C)C(=O)N[C@@H](C)C(=O)NCC(=O)NCC(=O)N1CCC[C@H]1C(=O)N[C@@H](CO)C(=O)N[C@@H](CO)C(=O)NCC(=O)N[C@@H](C)C(=O)N1CCC[C@H]1C(=O)N1CCC[C@H]1C(=O)N1CCC[C@H]1C(=O)N[C@@H](CO)C(=O)N[C@@H](CS)C(N)=O)C(C)C` [compound 50] returned an EC50 of 0.108 nM.
Consider `CCCCCCCCCCCCCCCC(=O)N[C@@H](CCC(=O)NCCCC[C@H](NC(=O)[C@H](CC(=O)O)NC(=O)[C@H](CO)NC(=O)[C@@H](NC(=O)[C@H](Cc1ccccc1)NC(=O)[C@@H](NC(=O)CNC(=O)[C@H](CCC(=O)O)NC(=O)C(C)(C)NC(=O)[C@@H](N)Cc1c[nH]cn1)[C@@H](C)O)[C@@H](C)O)C(=O)N[C@@H](CO)C(=O)N[C@@H](CCCCN)C(=O)N[C@@H](Cc1ccc(O)cc1)C(=O)N[C@@H](CC(C)C)C(=O)N[C@@H](CC(=O)O)C(=O)N[C@@H](CCC(=O)O)C(=O)N[C@@H](CCCNC(=N)N)C(=O)N[C@@H](C)C(=O)N[C@@H](C)C(=O)N[C@@H](CCC(N)=O)C(=O)N[C@@H](CC(=O)O)C(=O)N[C@@H](Cc1ccccc1)C(=O)N[C@H](C(=O)N[C@@H](CCC(N)=O)C(=O)N[C@@H](Cc1c[nH]c2ccccc12)C(=O)N[C@@H](CC(C)C)C(=O)N[C@@H](CC(C)C)C(=O)N[C@@H](CC(=O)O)C(=O)NCC(=O)NCC(=O)N1CCC[C@H]1C(=O)N[C@@H](CO)C(=O)N[C@@H](CO)C(=O)NCC(=O)N[C@@H](C)C(=O)N1CCC[C@H]1C(=O)N1CCC[C@H]1C(=O)N1CCC[C@H]1C(=O)N[C@@H](CO)C(N)=O)C(C)C)C(=O)O` [compound 80] (H-H[Aib]EGTFTSDK([γGlu-Palmitoyl])SKYLDERAAQDFVQWLLDGGPSSGAPPPS-NH2; N-terminus assumed), for which the EC50 (Table 6, Example 12) is 0.008 nM.
As for `CCCCCCCCCCCCCCCC(=O)N[C@@H](CCC(=O)NCCCC[C@H](NC(=O)[C@H](CC(=O)O)NC(=O)[C@H](CO)NC(=O)[C@@H](NC(=O)[C@H](Cc1ccccc1)NC(=O)[C@@H](NC(=O)CNC(=O)[C@H](CCC(=O)O)NC(=O)C(C)(C)NC(=O)[C@@H](N)Cc1c[nH]cn1)[C@@H](C)O)[C@@H](C)O)C(=O)N[C@@H](CO)C(=O)N[C@@H](CCCCN)C(=O)N[C@@H](Cc1ccc(O)cc1)C(=O)N[C@@H](CC(C)C)C(=O)N[C@@H](CC(=O)O)C(=O)N[C@@H](CCC(=O)O)C(=O)N[C@@H](CCCNC(=N)N)C(=O)N[C@@H](CCCNC(=N)N)C(=O)N[C@@H](C)C(=O)NC(C)(C)C(=O)N[C@@H](CCC(=O)O)C(=O)N[C@@H](Cc1ccccc1)C(=O)N[C@H](C(=O)N[C@@H](CCC(N)=O)C(=O)N[C@@H](Cc1c[nH]c2ccccc12)C(=O)N[C@@H](CC(C)C)C(=O)N[C@@H](CC(C)C)C(=O)N[C@@H](CC(=O)O)C(=O)NCC(=O)NCC(=O)N1CCC[C@H]1C(=O)N[C@@H](CO)C(=O)N[C@@H](CO)C(=O)NCC(=O)N[C@@H](C)C(=O)N1CCC[C@H]1C(=O)N1CCC[C@H]1C(=O)N1CCC[C@H]1C(=O)N[C@@H](CO)C(N)=O)C(C)C)C(=O)O` [compound 38] (H-H[Aib]EGTFTSDK([γGlu-Palmitoyl])SKYLDERRA[Aib]EFVQWLLDGGPSSGAPPPS-NH2; N-terminus assumed), where the note is “Table 4, Example 9, composite of multiple different activity assays”, a half-maximal effect (EC50) was put at 0.008 nM.

These data come from patent US9587005B2 (priority 2010, dated 2017).
